# Experimental data: PMC6979384, “Characterization of the plant homeodomain (PHD) reader family for their histone tail interactions” (Epigenetics & Chromatin, 2020)
# What was measured:
# Assay in all cases: Histone peptide microarray
# Format in all cases: binding, human
# Settings in all cases: sheet "Array Heatmap"; GST-tagged reader; histone peptide array, total n = 4
# [1] = tested on: AIRE (PP)
# Procedure, shortened: (§1)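 Using an optimized microarray protocol, purified GST-tagged PHD fingers were incubated at 0.5 μM on 293 histone peptides with single or multiple modifications, and array signal was recorded as the average of 4 replicates.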
# [2] = tested on: BAZ2B
# Procedure, shortened: as §1
# [3] = tested on: BPTF (PB)
# Procedure, shortened: as §1
# [4] = tested on: CHD4 (PPCC)
# Procedure, shortened: as §1
# [5] = tested on: CHD5 (PCC)
# Procedure, shortened: as §1
# [6] = tested on: CHD5 (PPCC)
# Procedure, shortened: as §1
# [7] = tested on: DIDO1
# Procedure, shortened: as §1
# [8] = tested on: DPF2 (PPC2W2)
# Procedure, shortened: as §1
# [9] = tested on: ING1
# Procedure, shortened: as §1
# [10] = tested on: ING2
# Procedure, shortened: as §1
# [11] = tested on: ING3
# Procedure, shortened: as §1
# [12] = tested on: ING4
# Procedure, shortened: as §1
# [13] = tested on: ING5
# Procedure, shortened: as §1
# [14] = tested on: KDM4C (TTP)
# Procedure, shortened: as §1
# [15] = tested on: KDM5A (1)
# Procedure, shortened: as §1
# [16] = tested on: KDM5A (3)
# Procedure, shortened: as §1
# [17] = tested on: KDM5B (1)
# Procedure, shortened: as §1
# [18] = tested on: KDM5B (3)
# Procedure, shortened: as §1
# [19] = tested on: KDM7A
# Procedure, shortened: as §1
# [20] = tested on: MLL5
# Procedure, shortened: as §1
# [21] = tested on: MORC3 (CW)
# Procedure, shortened: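 GST-tagged PHD finger readers were expressed, purified and applied at 0.5 μM to a microarray of 293 synthetic histone peptides carrying single or combinatorial PTMs, using an optimized protocol. Binding signals are averages with standard deviation from 4 replicates.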
# [22] = tested on: PHF13
# Procedure, shortened: as §1
# [23] = tested on: PHF21A
# Procedure, shortened: as §1
# [24] = tested on: PHF23
# Procedure, shortened: as §1
# [25] = tested on: PHF2
# Procedure, shortened: as §1
# [26] = tested on: PHF8
# Procedure, shortened: as §1
# [27] = tested on: PHRF1 (RP)
# Procedure, shortened: as §1
# [28] = tested on: RAG2
# Procedure, shortened: as §1
# [29] = tested on: SP140L
# Procedure, shortened: as §1
# [30] = tested on: TAF3
# Procedure, shortened: as §1
# [31] = tested on: TRIM66 (PB)
# Procedure, shortened: as §1
substance,measurement,setting,value
H3K4me3 + T6p: H3 1-20,"Array Heatmap signal, AIRE (PP)",[1],0.4133
same,"Array Heatmap signal, BAZ2B",[2],0.4415
same,"Array Heatmap signal, BPTF (PB)",[3],0.3519
same,"Array Heatmap signal, CHD4 (PPCC)",[4],0.5535
same,"Array Heatmap signal, CHD5 (PCC)",[5],0.7037
same,"Array Heatmap signal, CHD5 (PPCC)",[6],0.54
same,"Array Heatmap signal, DIDO1",[7],0.7585
same,"Array Heatmap signal, DPF2 (PPC2W2)",[8],0.6833
same,"Array Heatmap signal, ING1",[9],0.5971
same,"Array Heatmap signal, ING2",[10],0.6187
same,"Array Heatmap signal, ING3",[11],0.4695
same,"Array Heatmap signal, ING4",[12],0.4567
same,"Array Heatmap signal, ING5",[13],0.3481
same,"Array Heatmap signal, KDM4C (TTP)",[14],0.4688
same,"Array Heatmap signal, KDM5A (1)",[15],0.452
same,"Array Heatmap signal, KDM5A (3)",[16],0.4911
same,"Array Heatmap signal, KDM5B (1)",[17],0.6162
same,"Array Heatmap signal, KDM5B (3)",[18],0.4934
same,"Array Heatmap signal, KDM7A",[19],0.3405
same,"Array Heatmap signal, MLL5",[20],0.5684
same,"Array Heatmap signal, MORC3 (CW)",[21],0.3571
same,"Array Heatmap signal, PHF13",[22],0.5795
same,"Array Heatmap signal, PHF21A",[23],0.4225
same,"Array Heatmap signal, PHF23",[24],0.5195
same,"Array Heatmap signal, PHF2",[25],0.6668
same,"Array Heatmap signal, PHF8",[26],0.3678
same,"Array Heatmap signal, PHRF1 (RP)",[27],0.5056
same,"Array Heatmap signal, RAG2",[28],0.2443
same,"Array Heatmap signal, SP140L",[29],0.3667
same,"Array Heatmap signal, TAF3",[30],0.309
same,"Array Heatmap signal, TRIM66 (PB)",[31],0.549
